Assay results: ChEMBL document CHEMBL1152382, “Synthesis of novel quinoxaline derivatives and its cytotoxic activities” (Bioorg Med Chem Lett, 2009)

Test: Cytotoxicity against human HeLaS3 cells after 48 hrs by MTT assay
Format: functional, cell-based
Conditions: HeLa S3, 48 h

Q: With O=C1Nc2cc([N+](=O)[O-])ccc2N2CCCCC12 (stereo not given) as the molecule, how does the IC50 read?
A: The IC50 was > 30 µM.

Q: Which IC50 does the source give for N#Cc1ccc2c(c1)N1CCCCC1C(=O)N2 (stereo not given) here?
A: The IC50 was 7.6 µM.

Q: Which IC50 does the source give for O=C1Nc2ccccc2NC12CCCCC2 here?
A: The IC50 was > 30 µM.

Q: Which IC50 does the source give for O=C1Nc2cc(OC(F)(F)F)ccc2N2CCCCC12 (stereo not given) here?
A: The IC50 was > 30 µM.

Q: Which IC50 does the source give for CC1(C)Nc2ccccc2NC1=O here?
A: Its IC50 is > 30 µM.

Q: For CCC(C)C1Nc2cc(Cl)ccc2NC1=O (stereo not given), which IC50 is on record?
A: The IC50 was 17.2 µM.

Q: For O=C1Nc2cccnc2N2CCCCC12 (stereo not given), which IC50 is on record?
A: Its IC50 is > 30 µM.

Q: With CC(C)(C)C1Nc2ccccc2NC1=O (stereo not given) as the molecule, how does the IC50 read?
A: Its IC50 is > 30 µM.

Q: With CC(C)C1Nc2ccccc2NC1=O (stereo not given) as the molecule, how does the IC50 read?
A: Its IC50 is 4.85 µM.

Q: Which IC50 does the source give for O=C1Nc2ccccc2N2Cc3ccccc3CC12 (stereo not given) here?
A: Its IC50 is > 30 µM.

Q: For O=C1Nc2ccc(Cl)cc2N2CCCCC12 (stereo not given), which IC50 is on record?
A: The IC50 was 4.96 µM.

Q: For Cc1cnc2c(c1)N1CCCCC1C(=O)N2 (stereo not given), which IC50 is on record?
A: The IC50 was > 30 µM.

Q: Which IC50 does the source give for Cc1ccc2c(c1)N1CCCCC1C(=O)N2 (stereo not given) here?
A: The IC50 was 18.1 µM.

Q: For O=C1Nc2ccccc2NC1Cc1ccccc1 (stereo not given), which IC50 is on record?
A: Its IC50 is > 30 µM.

Q: For O=C1Nc2ccccc2N2CCCC12 (stereo not given), which IC50 is on record?
A: The IC50 was > 30 µM.
